ChEMBL document CHEMBL3885881, “DrugMatrix”

Species on record: Rattus norvegicus
Test: DrugMatrix - Regimen: Daily Repeat
Type: toxicity, organism-based, Sprague-Dawley
Set-up: regimen Daily Repeat, gender Male, age 6-8 weeks
Settings: in vivo, po, route oral GAVAGE, vehicle .5 % CMC; for ABSOLUTE BASOPHIL / ABSOLUTE EOSINOPHIL / ABSOLUTE LYMPHOCYTE / ABSOLUTE MONOCYTE / ABSOLUTE SEGMENTED NEUTROPHIL / BASOPHIL / EOSINOPHIL / ERYTHROCYTE COUNT / HEMATOCRIT / HEMOGLOBIN / LEUKOCYTE COUNT / LYMPHOCYTE / MEAN CORPUSCULAR HEMOGLOBIN / MEAN CORPUSCULAR HEMOGLOBIN CONCENTRATION / MEAN CORPUSCULAR VOLUME / MONOCYTE / NEUTROPHIL / NUCLEATED RED BLOOD CELLS / PLATELET COUNT: tissue Blood; for ALANINE AMINOTRANSFERASE / ALBUMIN / ALKALINE PHOSPHATASE / ASPARTATE AMINOTRANSFERASE / BLOOD UREA NITROGEN / CARBON DIOXIDE / CHLORIDE / CHOLESTEROL / CREATINE PHOSPHOKINASE / CREATININE / GLUCOSE / LACTATE DEHYDROGENASE / LIPASE / PHOSPHORUS / POTASSIUM / SODIUM / TOTAL BILIRUBIN / TOTAL PROTEIN / URIC ACID: tissue Plasma
[1] = 30 mg/kg, 72 h, dose level Low, time 3 day
[2] = 30 mg/kg, 120 h, dose level Low, time 5 day
[3] = 570 mg/kg, 72 h, dose level High, time 3 day
[4] = 570 mg/kg, 120 h, dose level High, time 5 day

Compound: O=C(O)COc1ccc(C(=O)c2cccs2)c(Cl)c1Cl
- ABSOLUTE BASOPHIL [1]: 0 CELLS/uL
- ABSOLUTE EOSINOPHIL [1]: 0 CELLS/uL
- ABSOLUTE LYMPHOCYTE [1]: 7024 CELLS/uL
- ABSOLUTE MONOCYTE [1]: 269 CELLS/uL
- ABSOLUTE SEGMENTED NEUTROPHIL [1]: 840.33 CELLS/uL
- BASOPHIL [1]: 0%
- EOSINOPHIL [1]: 0%
- ERYTHROCYTE COUNT [1]: 5.29 x10E6/uL
- HEMATOCRIT [1]: 33.2%
- HEMOGLOBIN [1]: 12.83 G/DL
- LEUKOCYTE COUNT [1]: 8.13 x10E3/uL
- LYMPHOCYTE [1]: 86.33%
- MEAN CORPUSCULAR HEMOGLOBIN [1]: 24.27 pg
- MEAN CORPUSCULAR HEMOGLOBIN CONCENTRATION [1]: 38.67 G/DL
- MEAN CORPUSCULAR VOLUME [1]: 62.8 fL
- MONOCYTE [1]: 3%
- NEUTROPHIL [1]: 10.67%
- NUCLEATED RED BLOOD CELLS [1]: 0.67 /100WBC
- PLATELET COUNT [1]: 1021.33 x10E3/uL
- ALANINE AMINOTRANSFERASE [1]: 60.33 u/L
- ALBUMIN [1]: 4.17 G/DL
- ALKALINE PHOSPHATASE [1]: 394.67 u/L
- ASPARTATE AMINOTRANSFERASE [1]: 94.33 u/L
- BLOOD UREA NITROGEN [1]: 14.67 mg/dL
- CARBON DIOXIDE [1]: 33.67 mmol/L
- CHLORIDE [1]: 99.67 MEQ/L
- CHOLESTEROL [1]: 74 mg/dL
- CREATINE PHOSPHOKINASE [1]: 524.67 u/L
- CREATININE [1]: 0.26 mg/dL
- GLUCOSE [1]: 144.67 mg/dL
- LACTATE DEHYDROGENASE [1]: 159 u/L
- LIPASE [1]: 9.33 u/L
- PHOSPHORUS [1]: 12.93 mg/dL
- POTASSIUM [1]: 6.21 MEQ/L
- SODIUM [1]: 144.4 MEQ/L
- TOTAL BILIRUBIN [1]: 0.17 mg/dL
- TOTAL PROTEIN [1]: 6.2 G/DL
- URIC ACID [1]: 0.5 mg/dL
- ABSOLUTE BASOPHIL [2]: 0 CELLS/uL
- ABSOLUTE EOSINOPHIL [2]: 52.67 CELLS/uL
- ABSOLUTE LYMPHOCYTE [2]: 10475.33 CELLS/uL
- ABSOLUTE MONOCYTE [2]: 92 CELLS/uL
- ABSOLUTE SEGMENTED NEUTROPHIL [2]: 1380 CELLS/uL
- BASOPHIL [2]: 0%
- EOSINOPHIL [2]: 0.33%
- ERYTHROCYTE COUNT [2]: 5.51 x10E6/uL
- HEMATOCRIT [2]: 35.03%
- HEMOGLOBIN [2]: 13.53 G/DL
- LEUKOCYTE COUNT [2]: 12 x10E3/uL
- LYMPHOCYTE [2]: 87.67%
- MEAN CORPUSCULAR HEMOGLOBIN [2]: 24.53 pg
- MEAN CORPUSCULAR HEMOGLOBIN CONCENTRATION [2]: 38.63 G/DL
- MEAN CORPUSCULAR VOLUME [2]: 63.57 fL
- MONOCYTE [2]: 0.67%
- NEUTROPHIL [2]: 11.33%
- NUCLEATED RED BLOOD CELLS [2]: 0 /100WBC
- PLATELET COUNT [2]: 1276 x10E3/uL
- ALANINE AMINOTRANSFERASE [2]: 51 u/L
- ALBUMIN [2]: 4.23 G/DL
- ALKALINE PHOSPHATASE [2]: 420.67 u/L
- ASPARTATE AMINOTRANSFERASE [2]: 78.33 u/L
- BLOOD UREA NITROGEN [2]: 13 mg/dL
- CARBON DIOXIDE [2]: 35.67 mmol/L
- CHLORIDE [2]: 97.33 MEQ/L
- CHOLESTEROL [2]: 80 mg/dL
- CREATINE PHOSPHOKINASE [2]: 446.67 u/L
- CREATININE [2]: 0.27 mg/dL
- GLUCOSE [2]: 136 mg/dL
- LACTATE DEHYDROGENASE [2]: 169.67 u/L
- LIPASE [2]: 8.33 u/L
- PHOSPHORUS [2]: 12.7 mg/dL
- POTASSIUM [2]: 6.46 MEQ/L
- SODIUM [2]: 142.87 MEQ/L
- TOTAL BILIRUBIN [2]: 0.2 mg/dL
- URIC ACID [2]: 0.8 mg/dL
- ABSOLUTE BASOPHIL [3]: 0 CELLS/uL
- ABSOLUTE EOSINOPHIL [3]: 0 CELLS/uL
- ABSOLUTE LYMPHOCYTE [3]: 14484.67 CELLS/uL
- ABSOLUTE MONOCYTE [3]: 271.67 CELLS/uL
- ABSOLUTE SEGMENTED NEUTROPHIL [3]: 1143.67 CELLS/uL
- BASOPHIL [3]: 0%
- EOSINOPHIL [3]: 0%
- ERYTHROCYTE COUNT [3]: 5.25 x10E6/uL
- HEMATOCRIT [3]: 32.4%
- HEMOGLOBIN [3]: 12.33 G/DL
- LEUKOCYTE COUNT [3]: 15.9 x10E3/uL
- LYMPHOCYTE [3]: 91.33%
- MEAN CORPUSCULAR HEMOGLOBIN [3]: 23.47 pg
- MEAN CORPUSCULAR HEMOGLOBIN CONCENTRATION [3]: 38.03 G/DL
- MEAN CORPUSCULAR VOLUME [3]: 61.6 fL
- MONOCYTE [3]: 1.67%
- NEUTROPHIL [3]: 7%
- NUCLEATED RED BLOOD CELLS [3]: 0 /100WBC
- PLATELET COUNT [3]: 1320.33 x10E3/uL
- ALANINE AMINOTRANSFERASE [3]: 61.67 u/L
- ALBUMIN [3]: 4.03 G/DL
- ALKALINE PHOSPHATASE [3]: 478 u/L
- ASPARTATE AMINOTRANSFERASE [3]: 93 u/L
- BLOOD UREA NITROGEN [3]: 14.67 mg/dL
- CARBON DIOXIDE [3]: 35.67 mmol/L
- CHLORIDE [3]: 97 MEQ/L
- CHOLESTEROL [3]: 89.67 mg/dL
- CREATINE PHOSPHOKINASE [3]: 605.33 u/L
- CREATININE [3]: 0.23 mg/dL
- GLUCOSE [3]: 141.33 mg/dL
- LACTATE DEHYDROGENASE [3]: 128 u/L
- LIPASE [3]: 9 u/L
- PHOSPHORUS [3]: 10.17 mg/dL
- POTASSIUM [3]: 5.26 MEQ/L
- SODIUM [3]: 142.77 MEQ/L
- TOTAL BILIRUBIN [3]: 0.2 mg/dL
- TOTAL PROTEIN [3]: 6.27 G/DL
- URIC ACID [3]: 0.47 mg/dL
- ABSOLUTE BASOPHIL [4]: 0 CELLS/uL
- ABSOLUTE EOSINOPHIL [4]: 0 CELLS/uL
- ABSOLUTE LYMPHOCYTE [4]: 19963.33 CELLS/uL
- ABSOLUTE MONOCYTE [4]: 319.33 CELLS/uL
- ABSOLUTE SEGMENTED NEUTROPHIL [4]: 2417.33 CELLS/uL
- BASOPHIL [4]: 0%
- EOSINOPHIL [4]: 0%
- ERYTHROCYTE COUNT [4]: 5.25 x10E6/uL
- HEMATOCRIT [4]: 32.67%
- HEMOGLOBIN [4]: 12.47 G/DL
- LEUKOCYTE COUNT [4]: 22.7 x10E3/uL
- LYMPHOCYTE [4]: 88.33%
- MEAN CORPUSCULAR HEMOGLOBIN [4]: 23.73 pg
- MEAN CORPUSCULAR HEMOGLOBIN CONCENTRATION [4]: 38.17 G/DL
- MEAN CORPUSCULAR VOLUME [4]: 62.33 fL
- MONOCYTE [4]: 1.33%
- NEUTROPHIL [4]: 10.33%
- NUCLEATED RED BLOOD CELLS [4]: 0 /100WBC
- PLATELET COUNT [4]: 1428 x10E3/uL
- ALANINE AMINOTRANSFERASE [4]: 48 u/L
- ALBUMIN [4]: 4.13 G/DL
- ALKALINE PHOSPHATASE [4]: 359.33 u/L
- ASPARTATE AMINOTRANSFERASE [4]: 74 u/L
- BLOOD UREA NITROGEN [4]: 15.67 mg/dL
- CARBON DIOXIDE [4]: 34.33 mmol/L
- CHLORIDE [4]: 100 MEQ/L
- CHOLESTEROL [4]: 70.33 mg/dL
- CREATINE PHOSPHOKINASE [4]: 268.67 u/L
- CREATININE [4]: 0.29 mg/dL
- GLUCOSE [4]: 144 mg/dL
- LACTATE DEHYDROGENASE [4]: 153.33 u/L
- LIPASE [4]: 6.67 u/L
- PHOSPHORUS [4]: 11 mg/dL
- POTASSIUM [4]: 6.13 MEQ/L
- SODIUM [4]: 144.77 MEQ/L
- TOTAL BILIRUBIN [4]: 0.2 mg/dL
- TOTAL PROTEIN [4]: 6.1 G/DL
- URIC ACID [4]: 1.3 mg/dL
